Square brackets hold non-standard residues; d marks the D form. Peptide text beside a SMILES is read from it. ΔPro = O=C(O)[C@@H]1C=CCN1
Experiments:
[1] = test system: 5-HTP Diarrhea; assay: Anti-diarrhea activity against 5-HTP diarrhea in CD-1 mice (comparative tests); assay type: in vivo, Male CD-1 mice; details: for anti-diarrhea activity (in words): intravenously at a dose of 132 μ moles/kg
Procedure: (§1) The anti-diarrhea ED50 values were determined using a computer program "ED50" based on the probit method of D. J. Finney, "Probit Analysis", Cambridge University Press, Cambridge, Great Britain (1971). The average percent inhibition obtained at each dose level of [D-Thr^2, Δ^3 Pro^5 ]-enkephalinamide was used as the response.
Male CD-1 mice were obtained from Charles River, Inc., Wilmington, Massachusetts, and weighted between 18 and 25 grams at the time of use.
All compounds with the exception of 5-HTP were dissolved in sterile 0.9% sodium chloride solution. Distilled water was used as the vehicle for 5-HTP. All compounds were administered to the mice using a constant dosage volume of 0.2 ml/20 gms of body weight.
In the experiment involving naloxone HCl, it or the vehicle were given 5 minutes prior to the administration of β-endorphin.
The amount of diarrhea produced by 5-HTP was determined as follows. Immediately following the administration of 5-HTP, the mice were individually housed in open-bottomed wire cages of a width and length of 8.5 cm and a height of 7.5 cm, resting on preweighed plastic sheets. The mice were removed from the cages 30 minutes after receiving 5-HTP, and any visible urinary discharge present on the plastic sheet was blotted dry. The sheets were then reweighed. The weight increment was considered to represent fecal weight.

[2] = test system: 5-hydroxytryptophan-induced diarrhea; assay: Anti-diarrhea activity against 5-hydroxytryptophan-induced diarrhea in CF-1 mice; assay type: in vivo, Male CF-1 mice; details: for Mean Fecal Wt. (mg) + S.E.: 30 s before 10 mg/kg 5-HTP ip, 30-minute test period
Procedure: Male CF-1 mice were used. The mice were housed at least one week prior to use. At the time of use, the mice were 49 days of age and weighed between 21-25 grams. The mice received, intravenously, vehicle, or the indicated amounts of, [D-Thr^2, Δ^3 Pro^5 ]enkephalinamide dissolved in sterile 0.9% sodium chloride. Thirty seconds later, 10 mg/kg of DL-5-hydroxytryptophan was administered intraperitoneally using distilled water as the vehicle. The mice were then immediately placed in individual open-bottomed wire cages resting on preweighed parafilm sheets. The mice were removed from their cages 30 minutes after receiving the DL-5-hydroxytryptophan. Any fecal material adhering to the sides of the wire cage was collected and placed on the parafilm sheets, and any visible urine on the sheets was blotted dry. The sheets were weighed, and the weight increment was considered to represent the amount of feces discharged during the 30-minute test period.
as §1

[3] = test system: Guinea Pig Ileum; assay: Opiate activity in guinea pig ileum assay; assay type: cell-based
Procedure: The opiate activity of [2-D-threonine, 5-(3,4-dehydroproline)]-enkephalinamide was measured according to the method of H. W. Kosterelitz, R. J. Lydon and H. A. Watt, British Journal of Pharmacology, volume 39 (1970), pp. 398-413. The results of the assay are shown in Table II and are compared with the opiate activities for human β-endorphin and Met-enkephaline.

[4] = cited from earlier work; for analgesic activity (in words): prior-art report
[5] = iv, 30 seconds prior to 10 mg/kg 5-HTP ip

CN1CC[C@]23c4c5ccc(O)c4O[C@H]2[C@@H](O)C=C[C@H]3[C@H]1C5.O=S(=O)(O)O [Morphine Sulfate]
prevention of 5-HTP diarrhea (in words) ([1]; intravenously or subcutaneously administered): effective in preventing this diarrhea

C[C@H](O)[C@@H](NC(=O)[C@@H](N)Cc1ccc(O)cc1)C(=O)NCC(=O)N[C@@H](Cc1ccccc1)C(=O)N1CC=C[C@H]1C(N)=O [[D-Thr^2, Δ^3 Pro^5]-enkephalinamide, [2-D-threonine, 5-(3,4-dehydroproline)]-enkephalinamide] (H-Y[dT]GF[ΔPro]-NH2)
Mean Fecal Wt. (mg) + S.E. ([2]; 1.2 μm/kg iv): 117.3 ± 11.06 mg
% Inhibition ([2]; 1.2 μm/kg iv, 5-HTP 10 mg/kg ip): 34.6%
Mean Fecal Wt. (mg) + S.E. ([2]; 3.60 μm/kg iv): 80.1 ± 22.43 mg
% Inhibition ([2]; 3.60 μm/kg iv, 5-HTP 10 mg/kg ip): 55.3%
Mean Fecal Wt. (mg) + S.E. ([2]; 12.05 μm/kg iv): 49.8 ± 14.44 mg
% Inhibition ([2]; 12.05 μm/kg iv, 5-HTP 10 mg/kg ip): 72.2%
Mean Fecal Wt. (mg) + S.E. ([2]; 24.10 μm/kg iv): 37.9 ± 12.81 mg
% Inhibition ([2]; 24.10 μm/kg iv, 5-HTP 10 mg/kg ip): 78.9%
inhibition of 5-hydroxytryptophan-induced diarrhea (in words) ([2]; by intravenous injection): potent agent
ED50 μm/kg + S.E. ([2]; iv, probit method, 5-HTP 10 mg/kg ip): 2.9 ± 1.74 μm/kg
IC50 [3]: 9.3 nM
Relative Potency ([3]; human β-endorphin = 100, 5-(3,4-dehydroproline)]-enkephalinamide): 330
Relative Potency ([3]; human β-endorphin = 100, listed as Tyr-D-Thr-Gly-Phe-Δ Pro-NH2): 336

Human β-Endorphin
IC50 [3]: 31 nM
Relative Potency ([3]; human β-endorphin = 100): 100
% Inhibition of 5-HTP Diarrhea ± S.E. ([1]; 0.43 μmoles/kg iv): 25.6 ± 16.1%
% Inhibition of 5-HTP Diarrhea ± S.E. ([1]; 0.86 μmoles/kg iv): 46.6 ± 16.0%
% Inhibition of 5-HTP Diarrhea ± S.E. ([1]; 1.0 μmoles/kg sc): 35.3 ± 14.2%
% Inhibition of 5-HTP Diarrhea ± S.E. ([1]; 1.73 μmoles/kg iv): 58.3 ± 12.6%
% Inhibition of 5-HTP Diarrhea ± S.E. ([1]; 3.0 μmoles/kg sc): 51.7 ± 9.9%
% Inhibition of 5-HTP Diarrhea ± S.E. ([1]; 3.46 μmoles/kg iv): 62.2 ± 10.3%
% Inhibition of 5-HTP Diarrhea ± S.E. ([1]; 6.0 μmoles/kg sc): 61.0 ± 6.9%
% Inhibition of 5-HTP Diarrhea ± S.E. ([1]; 6.92 μmoles/kg iv): 66.4 ± 8.0%
% Inhibition of 5-HTP Diarrhea ± S.E. ([1]; 9.0 μmoles/kg sc): 70.3 ± 8.7%
% Inhibition of 5-HTP Diarrhea ± S.E. ([1]; 13.84 μmoles/kg iv): 92.2 ± 4.8%
Anti-Diarrhea ED50 ± S.E. [1, 5]: 1.42 ± 0.636 µmol/kg
Anti-Diarrhea ED50 ± S.E. ([1]; sc, 1 minute prior to 10 mg/kg 5-HTP ip): 2.65 ± 1.425 µmol/kg

Leu-Enkephalin
% Inhibition of 5-HTP Diarrhea ± S.E. ([1]; 66 μmoles/kg iv): 0.0 ± 13.1%
% Inhibition of 5-HTP Diarrhea ± S.E. ([1]; 132 μmoles/kg iv): 10.4 ± 7.7%
anti-diarrhea activity (in words) [1]: only weak anti-diarrhea activity
Anti-Diarrhea ED50 ± S.E. [1, 5]: > 132 µmol/kg

Met-Enkephalin
IC50 [3]: 124 nM
Relative Potency ([3]; human β-endorphin = 100): 25
% Inhibition of 5-HTP Diarrhea ± S.E. ([1]; 66 μmoles/kg iv): 21.3 ± 15.9%
% Inhibition of 5-HTP Diarrhea ± S.E. ([1]; 132 μmoles/kg iv): 23.7 ± 9.6%
anti-diarrhea activity (in words) [1]: only weak anti-diarrhea activity
Anti-Diarrhea ED50 ± S.E. [1, 5]: > 132 µmol/kg

[D-Ala^2, MePhe^4, MetO^5 -ol] enkephalin
oral activity (in words) ([4]; Roemer et al., Nature 268, 547 (1977)): orally active
analgesic activity (in words) [4]: most potent analgesic of the group

[D-Met^2, Pro^5 ]-enkephalinamide [D-Met^2 -Pro^5 -Enkephalin-Amide]
analgesic activity (in words) [4]: potent analgesic agent
% Inhibition of 5-HTP Diarrhea ± S.E. ([1]; 0.20 μmoles/kg iv): 1.7 ± 13.2%
% Inhibition of 5-HTP Diarrhea ± S.E. ([1]; 0.60 μmoles/kg iv): 32.3 ± 13.4%
% Inhibition of 5-HTP Diarrhea ± S.E. ([1]; 1.20 μmoles/kg iv): 36.9 ± 11.0%
% Inhibition of 5-HTP Diarrhea ± S.E. ([1]; 2.40 μmoles/kg iv): 66.0 ± 7.6%
% Inhibition of 5-HTP Diarrhea ± S.E. ([1]; 4.30 μmoles/kg iv): 88.6 ± 7.7%
Anti-Diarrhea ED50 ± S.E. [1, 5]: 1.38 ± 0.310 µmol/kg

[D-Met^2, Thz^5 ]-enkephalinamide
analgesic activity (in words) [4]: potent analgesic agents

[D-Thr^2, Thz^5 ]-enkephalinamide
analgesic activity (in words) [4]: potent analgesic agents
